From ChEMBL document CHEMBL1201862, “PubChem BioAssay data set” (2004)
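Dose response: 5 concentrations. Exposure: 48 h. Format: 96-well plates. Endpoint: linear interpolation; highest concentration if not reached. GI50 = concentration required for 50% inhibition of growth.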 Activity calls are given as the source filed them. Cut-off read from the data, not from the text of the source: active = GI50 up to about 1.1 µM and inactive = higher.

Tests used:
Assay in all cases: NCI anticancer screen, dose series, 48 h
EKVX = test system: EKVX
OVCAR-3 = test system: OVCAR-3
SK-MEL-5 = test system: SK-MEL-5
SNB-19 = test system: SNB-19
OVCAR-5 = test system: OVCAR-5
A549 = test system: A549
SF-268 = test system: SF-268
CAKI-1 = test system: CAKI-1
MDA-MB-435 = test system: MDA-MB-435
BT-549 = test system: BT-549
SF-539 = test system: SF-539
SF-295 = test system: SF-295
CCRF-CEM = test system: CCRF-CEM
COLO 205 = test system: COLO 205
OVCAR-4 = test system: OVCAR-4
LOX IMVI = test system: LOX IMVI
NCI-H522 = test system: NCI-H522
786-0 = test system: 786-0
RPMI-8226 = test system: RPMI-8226
Hs-578T = test system: Hs-578T

Measured: GI50

Cc1c(O)c(OC2OC(CO)C(O)C(O)C2O)cc2c1C=C[C@@H]1[C@@]2(C)C(=O)C[C@]2(C)[C@@H]([C@@](C)(O)C(O)/C=C/C(C)(C)O)[C@H](O)C[C@@]12C (stereo not given in full)
inactive: EKVX > 100 µM | OVCAR-3 > 100 µM | SK-MEL-5 > 100 µM | SNB-19 > 100 µM | OVCAR-5 > 100 µM | A549 > 100 µM | SF-268 > 100 µM | CAKI-1 > 100 µM | MDA-MB-435 > 100 µM | BT-549 > 100 µM | SF-539 > 100 µM | SF-295 > 100 µM | CCRF-CEM > 100 µM | COLO 205 > 100 µM | OVCAR-4 > 100 µM | LOX IMVI > 100 µM | NCI-H522 > 100 µM | 786-0 > 100 µM

Cc1nn(C)c2nc3ccc(Cl)cc3c(-c3ccccc3)c12
inactive: RPMI-8226 > 100 µM | EKVX > 100 µM | OVCAR-3 > 100 µM | SNB-19 > 100 µM | OVCAR-5 95.3 µM | A549 79.6 µM | SF-268 > 100 µM | CAKI-1 > 100 µM | MDA-MB-435 > 100 µM | BT-549 > 100 µM | SF-539 > 100 µM | SF-295 > 100 µM | CCRF-CEM > 100 µM | COLO 205 > 100 µM | OVCAR-4 > 100 µM | NCI-H522 > 100 µM | 786-0 > 100 µM

C#CCOCn1ccc(=O)[nH]c1=O
inactive: RPMI-8226 > 100 µM | EKVX > 100 µM | SK-MEL-5 > 100 µM | SNB-19 > 100 µM | Hs-578T > 100 µM | OVCAR-5 > 100 µM | A549 > 100 µM | SF-268 > 100 µM | CAKI-1 > 100 µM | MDA-MB-435 > 100 µM | SF-539 > 100 µM | SF-295 > 100 µM | CCRF-CEM > 100 µM | COLO 205 > 100 µM | OVCAR-4 > 100 µM | LOX IMVI > 100 µM | 786-0 > 100 µM

COC(=O)c1onc(C2OC(C)(C)OC2C(O)COC(c2ccccc2)(c2ccccc2)c2ccccc2)c1C(=O)OC (stereo not given)
inactive: RPMI-8226 > 100 µM | EKVX 41.9 µM | OVCAR-3 87.5 µM | SK-MEL-5 > 100 µM | SNB-19 > 100 µM | Hs-578T > 100 µM | OVCAR-5 > 100 µM | A549 > 100 µM | SF-268 > 100 µM | MDA-MB-435 89.5 µM | SF-539 > 100 µM | CCRF-CEM > 100 µM | COLO 205 > 100 µM | OVCAR-4 > 100 µM | NCI-H522 65.8 µM | 786-0 > 100 µM

COCOc1ccc(C(=O)C(C)c2ccc(OCOC)cc2OCOC)c(O)c1 (stereo not given)
inactive: RPMI-8226 71.1 µM | EKVX 83.6 µM | SK-MEL-5 37 µM | SNB-19 > 100 µM | OVCAR-5 > 100 µM | A549 97.3 µM | SF-268 > 100 µM | CAKI-1 52.1 µM | MDA-MB-435 71.3 µM | BT-549 60.5 µM | SF-539 > 100 µM | CCRF-CEM 83.4 µM | COLO 205 > 100 µM | OVCAR-4 > 100 µM | NCI-H522 41.5 µM | 786-0 > 100 µM

C=C(C)[C@@H]1CC[C@@]2(C)[C@H]1[C@H]1CCC3[C@@]4(C)CC[C@H](O)C(C)(C)[C@@H]4CC[C@@]3(C)[C@]1(C)C[C@@H]2O (stereo not given in full) [CALENDULADIOL]
inactive: EKVX 33.7 µM | OVCAR-3 52.1 µM | SK-MEL-5 19.1 µM | SNB-19 54.7 µM | OVCAR-5 63.2 µM | A549 11.1 µM | SF-268 87.1 µM | CAKI-1 48.4 µM | MDA-MB-435 23.1 µM | BT-549 > 100 µM | SF-539 67 µM | SF-295 23.7 µM | CCRF-CEM 19.2 µM | LOX IMVI 46.2 µM | NCI-H522 17.6 µM | 786-0 38 µM

Cc1cccc(C)c1NC(=O)C(=O)Nn1c(NN)nc2ccccc2c1=O
inactive: RPMI-8226 > 100 µM | EKVX > 100 µM | OVCAR-3 > 100 µM | SK-MEL-5 > 100 µM | SNB-19 > 100 µM | OVCAR-5 > 100 µM | A549 > 100 µM | SF-268 > 100 µM | CAKI-1 > 100 µM | SF-539 > 100 µM | SF-295 > 100 µM | CCRF-CEM > 100 µM | COLO 205 > 100 µM | OVCAR-4 > 100 µM | LOX IMVI > 100 µM | NCI-H522 > 100 µM | 786-0 > 100 µM

CC(=O)[C@H]1[C@H](O)C[C@@]2(C)[C@@H]3CCc4cc(O)c(OC5OC(CO)C(O)C(O)C5O)cc4C3(C)C(=O)C[C@]12C (stereo not given in full)
inactive: EKVX > 100 µM | OVCAR-3 > 100 µM | SK-MEL-5 > 100 µM | SNB-19 > 100 µM | OVCAR-5 > 100 µM | A549 > 100 µM | SF-268 > 100 µM | CAKI-1 > 100 µM | MDA-MB-435 > 100 µM | BT-549 > 100 µM | SF-539 > 100 µM | SF-295 > 100 µM | CCRF-CEM > 100 µM | COLO 205 > 100 µM | OVCAR-4 > 100 µM | LOX IMVI > 100 µM | NCI-H522 > 100 µM | 786-0 > 100 µM

Cc1ccc2c(c1)Nc1cc(C(F)(F)F)ccc1[PH]2=O (stereo not given)
inactive: EKVX 3.78 µM | OVCAR-3 30 µM | SK-MEL-5 15.3 µM | SNB-19 18.9 µM | OVCAR-5 50.2 µM | A549 30.4 µM | SF-268 34 µM | CAKI-1 47.4 µM | MDA-MB-435 37.6 µM | SF-539 21.8 µM | SF-295 5.57 µM | CCRF-CEM 14.9 µM | COLO 205 16.1 µM | OVCAR-4 11.6 µM | LOX IMVI 26.1 µM | NCI-H522 21.7 µM | 786-0 66.4 µM

NN/C(=N\S(=O)(=O)c1cc2ccccc2s1)Nc1ccc(Cl)cc1
inactive: RPMI-8226 16 µM | EKVX 19.2 µM | OVCAR-3 18.9 µM | SK-MEL-5 17.9 µM | SNB-19 27 µM | OVCAR-5 21.1 µM | A549 19.4 µM | SF-268 22.8 µM | CAKI-1 18.5 µM | BT-549 18.9 µM | SF-539 16.1 µM | SF-295 19.9 µM | COLO 205 17.3 µM | OVCAR-4 17.5 µM | LOX IMVI 20.8 µM | 786-0 19.6 µM

CCOP(=O)(/C=C\n1cnc2c(=O)n(C(C)=O)c(N)nc21)OCC
inactive: RPMI-8226 > 100 µM | EKVX > 100 µM | OVCAR-3 > 100 µM | SK-MEL-5 > 100 µM | SNB-19 > 100 µM | OVCAR-5 > 100 µM | A549 > 100 µM | CAKI-1 > 100 µM | MDA-MB-435 > 100 µM | BT-549 > 100 µM | SF-539 > 100 µM | SF-295 > 100 µM | CCRF-CEM > 100 µM | COLO 205 > 100 µM | OVCAR-4 > 100 µM | LOX IMVI > 100 µM | 786-0 > 100 µM
